{"source": "patent US20240158457A1", "about": "“INTERLEUKIN-18 RECEPTOR BINDING POLYPEPTIDES AND USES THEREOF” (Medikine, Inc., priority 2022, published 2024)", "key": {"[1]": {"biological_target": "T1, IL-18 Binding Protein (IL-18BP) (Homo sapiens, UniProt O95998)", "T1 construct": "purchased ACROBiosystems (Acro); R&D Systems ILP-H5253; 119-BP", "T1 sequence (O95998 31-194)": "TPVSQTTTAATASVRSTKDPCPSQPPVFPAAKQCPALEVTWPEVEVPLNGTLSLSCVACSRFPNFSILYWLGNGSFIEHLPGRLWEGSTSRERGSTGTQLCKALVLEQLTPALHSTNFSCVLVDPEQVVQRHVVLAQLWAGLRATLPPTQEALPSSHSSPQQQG", "assay": "Direct binding ELISA for IL-18BP", "conditions": "C-terminally biotinylated forms of peptides; at up to 100 nM IL-18BP", "description": "Binding of synthetic monomer peptides to IL-18 Binding Protein (IL-18BP) was measured using a direct binding ELISA. Briefly, 96-well ELISA plates were coated with NeutrAvidin (NA) at 5 μg per well in PBS, washed, then blocked with PBS containing 1% BSA. Wells were washed and representative peptides, synthesized with a C-terminal biotin were diluted to 300 nM in assay buffer and added to the NA coated wells. Wells were washed and serial dilutions starting at 100 nM of IL-18R subunits, IL-18BP from either of two sources (Acro #ILP-H5253 and R&D #119-BP), and control IgG Fc fusions) were added to the wells and incubated for 1 hr at 4° C. Then plates were washed and goat anti-human IgG Fc-HRP (Southern Biotech #2048-05) detection antibody was added for 1 hr. Wells were developed with TMB for 5-15 min and the enzyme reaction was stopped with a H2SO4 solution."}, "IL-18R": {"biological_target": "T2, IL-18R (Homo sapiens, UniProt O95256+Q13478)", "T2 construct": "host or cells: HEK293 (HEK-BLUE IL-18 reporter cell line)", "T2 sequence (Q13478 19-541)": "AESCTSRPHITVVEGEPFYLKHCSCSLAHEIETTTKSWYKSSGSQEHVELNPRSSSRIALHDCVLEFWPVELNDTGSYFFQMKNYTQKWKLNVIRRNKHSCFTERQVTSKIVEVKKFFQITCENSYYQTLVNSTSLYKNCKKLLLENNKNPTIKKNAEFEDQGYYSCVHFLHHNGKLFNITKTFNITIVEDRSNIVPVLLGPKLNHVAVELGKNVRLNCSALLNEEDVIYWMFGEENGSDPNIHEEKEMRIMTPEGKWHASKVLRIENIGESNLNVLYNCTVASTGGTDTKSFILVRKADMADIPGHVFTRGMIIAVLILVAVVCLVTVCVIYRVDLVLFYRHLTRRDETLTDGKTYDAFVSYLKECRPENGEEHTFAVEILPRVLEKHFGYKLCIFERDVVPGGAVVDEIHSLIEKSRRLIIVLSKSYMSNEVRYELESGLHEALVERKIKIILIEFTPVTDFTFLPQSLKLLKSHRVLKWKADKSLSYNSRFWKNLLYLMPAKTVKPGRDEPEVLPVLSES", "T2 sequence (O95256 20-599)": "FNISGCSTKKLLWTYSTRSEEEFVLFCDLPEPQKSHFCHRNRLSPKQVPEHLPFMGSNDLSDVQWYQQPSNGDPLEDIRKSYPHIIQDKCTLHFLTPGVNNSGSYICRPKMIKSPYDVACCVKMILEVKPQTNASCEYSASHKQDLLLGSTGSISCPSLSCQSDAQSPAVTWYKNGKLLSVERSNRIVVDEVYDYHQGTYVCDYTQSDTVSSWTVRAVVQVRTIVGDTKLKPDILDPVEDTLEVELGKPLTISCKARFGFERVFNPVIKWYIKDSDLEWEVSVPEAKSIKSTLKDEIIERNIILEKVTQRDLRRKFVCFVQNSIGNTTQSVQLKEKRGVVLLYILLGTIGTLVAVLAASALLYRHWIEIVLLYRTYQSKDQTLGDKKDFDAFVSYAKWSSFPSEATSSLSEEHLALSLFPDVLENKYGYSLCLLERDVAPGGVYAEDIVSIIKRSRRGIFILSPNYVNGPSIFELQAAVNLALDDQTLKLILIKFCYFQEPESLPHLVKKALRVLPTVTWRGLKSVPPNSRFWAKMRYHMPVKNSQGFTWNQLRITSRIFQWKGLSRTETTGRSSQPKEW", "assay": "HEK-BLUE IL18R reporter assay for IL-18BP/IL-18 interaction (agonist activity with and without IL-18BP)", "assay_type": "cell-based", "conditions": "IL-18BP up to 100 nM; 30 nM dimer 10; FIG. 22B", "description": "IL-18 is negatively regulated by a decoy receptor called IL-18 binding protein (IL-18BP), a secreted antagonist that binds IL-18 with extremely high affinity. HEK-BLUE™ IL-18 reporter cell line (InvivoGen #hkb-hmil 18, California, USA) was used to determine the impact of heterodimer peptides composed of IL-18Ra and IL-18Rb binding peptides on the IL-18BP/IL-18 interaction. The IL-18 Reporter assay, as described in detail in Example 2, was used to investigate this interaction with the following modifications.\nA serial dilution (7-point, 10-fold) of IL-18BP Fc fusion (Acro #ILP-H5253) starting at 2 μM (20-fold final concentration) was prepared in test medium in a v-bottom polypropylene 96-well plate. Human recombinant IL-18 (R&D Systems #9124-IL-050/CF) and a representative peptide agonist were prepared at 30 pM and 600 nM respectively (both at 20-fold final concentration and at approximately their respective EC70s). […] Absorbance signal at 630 nm was then measured on a plate reader. Half maximal inhibition concentration (IC50) was calculated based on a variable slope and four parameter analysis using GraphPad Prism software. When no inhibition was measured the data points were connected without a curve fit. Absorbance readings were converted to percent total of signal span, for IL-18 and peptide agonist respectively, and graphed as NF-κB reporter activity (% max)."}}, "note": "Where a SMILES comes first, the peptide text is derived from it. Bridges are numbered along the chain shown (N, C = ends)."}
{"compound": "CC(C)C[C@H](NC(=O)CNC(=O)CN)C(=O)N[C@H]1CSSC[C@@H](C(=O)N[C@@H](CC(C)C)C(=O)NCC(=O)NCC(=O)O)NC(=O)[C@@H]2CCCN2C(=O)CNC(=O)[C@H](CCCNC(=N)N)NC(=O)[C@H](C(C)C)NC(=O)[C@H]([C@@H](C)O)NC(=O)CNC(=O)CNC(=O)[C@H](Cc2ccccc2)NC(=O)[C@H](Cc2ccc(O)cc2)NC(=O)[C@H](Cc2c[nH]c3ccccc23)NC1=O", "note": "[Family 2 synthetic construct, GGLCWYFGGTVRGPCLGG] (H-GGLCWYFGGTVRGPCLGG-OH; disulfide 4-15; N-terminus and C-terminus assumed)", "values": [{"measurement": "binding to IL-18BP", "setting": "[1]", "result": "did not exhibit binding"}]}
{"compound": "GGELCWRPFSFVDCEEGG [alpha Synthetic Fla Consensus Construct]", "values": [{"measurement": "binding to IL-18BP", "setting": "[1]", "result": "did not exhibit binding"}]}
{"compound": "CC[C@H](C)[C@@H]1NC(=O)[C@H](CCC(=O)O)NC(=O)[C@H](CO)NC(=O)[C@H](CC(C)C)NC(=O)[C@H](Cc2c[nH]cn2)NC(=O)[C@H](CC(=O)O)NC(=O)[C@H](CO)NC(=O)[C@H](CC(C)C)NC(=O)[C@H](Cc2c[nH]c3ccccc23)NC(=O)[C@H](CC(N)=O)NC(=O)[C@@H]2CCCN2C(=O)[C@@H](NC(=O)CNC(=O)CN)CSSC[C@@H](C(=O)NCC(=O)NCC(=O)O)NC(=O)[C@H](Cc2c[nH]c3ccccc23)NC1=O", "note": "[Dimer 5C09, GGCPNWLSDHLSEIWCGG] (H-GGCPNWLSDHLSEIWCGG-OH; disulfide 3-16; N-terminus and C-terminus assumed)", "values": [{"measurement": "binding to IL-18BP", "setting": "[1]", "result": "did not exhibit binding"}]}
{"compound": "CC[C@H](C)[C@H](NC(=O)[C@@H]1CSSC[C@H](NC(=O)[C@H](CCC(=O)O)NC(=O)[C@H](Cc2ccccc2)NC(=O)[C@H](Cc2ccccc2)NC(=O)CNC(=O)CNC(=O)[C@H](CO)NC(=O)CNC(=O)CCc2cn(CC[C@H](NC(=O)[C@H](CC(C)C)NC(=O)[C@@H]3CSSC[C@H](NC(=O)[C@H](CC(C)C)NC(=O)CNC(=O)CN)C(=O)N[C@@H](Cc4c[nH]c5ccccc45)C(=O)N[C@@H](Cc4ccc(O)cc4)C(=O)N[C@@H](Cc4ccccc4)C(=O)NCC(=O)NCC(=O)N[C@@H]([C@@H](C)O)C(=O)N[C@@H](C(C)C)C(=O)N[C@@H](CCCNC(=N)N)C(=O)NCC(=O)N4CCC[C@H]4C(=O)N3)C(N)=O)nn2)C(=O)N[C@@H](Cc2ccccc2)C(=O)N[C@@H](Cc2ccc(O)cc2)C(=O)N[C@@H](CO)C(=O)N2CCC[C@H]2C(=O)NCC(=O)N[C@@H](Cc2c[nH]cn2)C(=O)N[C@@H](CCC(=O)O)C(=O)N[C@@H](Cc2c[nH]c3ccccc23)C(=O)N1)C(=O)N1CCC[C@H]1C(=O)N[C@@H](CO)C(=O)NCC(=O)NCC(N)=O", "note": "[Dimer 10]", "values": [{"measurement": "inhibition of agonist activity by IL-18BP", "setting": "IL-18R", "result": "does not inhibit"}]}
